Test results: PubChem BioAssay AID248 (DTP/NCI, 2004)
Values joined by “and” are separate entries in the source; they are usually repeats but may differ in a detail not shown here. Equal values may be shown once. Inconclusive results and toxic doses are left out. No stated cut-off is given here; in the data, active means T/C of 150% or more; inactive means T/C below 125%.

Tested on: L1210 leukemia ip in BDF1 mice, survival T/C
Experiment: NCI In Vivo Anticancer Drug Screen. Data for tumor model L1210 Leukemia (intraperitoneal) in B6D2F1 (BDF1) mice
Settings: endpoint: mean survival time, higher = longer survival
Method in brief: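 Transplanted-tumor mice were given test agent; controls received vehicle only. Survival readings from the two groups were divided (treated over control).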

[1] = dose: 100.0 mg/kg/injection, schedule: Q01DX009 (ip), vehicle: saline with Tween-80
[2] = dose: 200.0 mg/kg/injection, schedule: Q01DX009 (ip), vehicle: saline with Tween-80
[3] = dose: 400.0 mg/kg/injection, schedule: Q01DX009 (ip), vehicle: saline with Tween-80
[4] = dose: 100.0 mg/kg/injection, schedule: Q01DX001 (ip), vehicle: saline
[5] = dose: 200.0 mg/kg/injection, schedule: Q01DX001 (ip), vehicle: saline
[6] = dose: 400.0 mg/kg/injection, schedule: Q01DX001 (ip), vehicle: saline
[7] = dose: 75.0 mg/kg/injection, schedule: Q01DX001 (ip), vehicle: carboxymethylcellulose (CMC)
[8] = dose: 100.0 mg/kg/injection, schedule: Q04DX003 (ip), vehicle: Klucel (hydroxypropylcellulose) (HPC)
[9] = dose: 200.0 mg/kg/injection, schedule: Q01DX009 (ip), vehicle: Klucel (hydroxypropylcellulose) (HPC)
[10] = dose: 200.0 mg/kg/injection, schedule: Q04DX003 (ip), vehicle: Klucel (hydroxypropylcellulose) (HPC)
[11] = dose: 400.0 mg/kg/injection, schedule: Q01DX009 (ip), vehicle: Klucel (hydroxypropylcellulose) (HPC)
[12] = dose: 400.0 mg/kg/injection, schedule: Q04DX003 (ip), vehicle: Klucel (hydroxypropylcellulose) (HPC)
[13] = dose: 100.0 mg/kg/injection, schedule: Q04DX003 (ip), vehicle: saline
[14] = dose: 200.0 mg/kg/injection, schedule: Q04DX003 (ip), vehicle: saline
[15] = dose: 400.0 mg/kg/injection, schedule: Q04DX003 (ip), vehicle: saline
[16] = dose: 100.0 mg/kg/injection, schedule: Q04DX002 (ip), vehicle: saline
[17] = dose: 200.0 mg/kg/injection, schedule: Q04DX002 (ip), vehicle: saline
[18] = dose: 100.0 mg/kg/injection, schedule: Q01DX009 (ip), vehicle: Klucel (hydroxypropylcellulose) (HPC)
[19] = dose: 100.0 mg/kg/injection, schedule: Q04DX002 (ip), vehicle: saline with Tween-80
[20] = dose: 200.0 mg/kg/injection, schedule: Q04DX002 (ip), vehicle: saline with Tween-80
[21] = dose: 400.0 mg/kg/injection, schedule: Q04DX002 (ip), vehicle: saline with Tween-80
[22] = dose: 100.0 mg/kg/injection, schedule: Q04DX003 (ip), vehicle: saline with Tween-80
[23] = dose: 200.0 mg/kg/injection, schedule: Q04DX003 (ip), vehicle: saline with Tween-80

Measured: T/C

C=C(Br)CNS(C)(=O)=O
inactive: dose: 6.25 mg/kg/injection, schedule: Q01DX009 (ip), vehicle: saline 106 % of control | dose: 12.5 mg/kg/injection, schedule: Q01DX009 (ip), vehicle: saline 95 % of control | dose: 12.5 mg/kg/injection, schedule: Q04DX003 (ip), vehicle: saline 98 % of control | dose: 25.0 mg/kg/injection, schedule: Q01DX009 (ip), vehicle: saline 96 % of control | dose: 25.0 mg/kg/injection, schedule: Q04DX003 (ip), vehicle: saline 104 % of control

CCC(C)(S(=O)(=O)CC)S(=O)(=O)CC
inactive: [1] 105 % of control | [2] 102 % of control | [3] 100 % of control

CCOC(=O)c1cc(OC)c[nH]1
inactive: dose: 50.0 mg/kg/injection, schedule: Q01DX001 (ip), vehicle: saline 100 % of control | [4] 94 % of control | [5] 88 % of control | [6] 105 % of control

CCN(CC)CCN(Cc1ccccc1)C(=O)C(O)(c1ccccc1)c1ccccc1
inactive: dose: 100.0 mg/kg/injection, schedule: Q01DX001 (ip), vehicle: saline with Tween-80 105 % of control | dose: 200.0 mg/kg/injection, schedule: Q01DX001 (ip), vehicle: saline with Tween-80 108 % of control

COC(=O)C12C3OC(C4OC43)C1(C(=O)OC)C1OC2C2OC21 (centres undefined)
inactive: dose: 87.5 mg/kg/injection, schedule: Q01DX009 (ip), vehicle: Klucel (hydroxypropylcellulose) (HPC) 100 % of control | dose: 175.0 mg/kg/injection, schedule: Q01DX009 (ip), vehicle: Klucel (hydroxypropylcellulose) (HPC) 101 % of control | dose: 350.0 mg/kg/injection, schedule: Q01DX009 (ip), vehicle: Klucel (hydroxypropylcellulose) (HPC) 101 % of control

COC(=O)CC(C(=O)OC)N1CC1 (centres undefined)
inactive: [7] 101 % of control

Cc1cnc2c(N)[nH]nc2n1
inactive: [8] 106 % of control | [9] 104 % of control | [10] 96 % of control | [11] 100 % of control | [12] 102 % of control

COc1cc2ccc(CC(N)=O)cc2cc1OC
inactive: [13] 100 % of control | [14] 97 % of control | [15] 98 % of control

CCOC(=O)C1=NN(c2ccccc2)C(=O)C1N=Nc1ccc(S(=O)(=O)Nc2onc(C)c2C)cc1 (centres undefined)
inactive: [4] 104 % of control | [5] 98 % of control | [6] 107 % of control

CCCCCCC12CCC(O)C1(CCCCCCC(=O)O)O2 (centres undefined)
inactive: dose: 50.0 mg/kg/injection, schedule: Q04DX002 (ip), vehicle: saline 95 % of control | [16] 102 % of control | [17] 91 % of control

c1coc(-c2ncnc3c2Cc2ccccc2-3)c1
inactive: dose: 25.0 mg/kg/injection, schedule: Q01DX009 (ip), vehicle: Klucel (hydroxypropylcellulose) (HPC) 96 % of control | dose: 25.0 mg/kg/injection, schedule: Q04DX003 (ip), vehicle: Klucel (hydroxypropylcellulose) (HPC) 98 % of control | dose: 50.0 mg/kg/injection, schedule: Q01DX009 (ip), vehicle: Klucel (hydroxypropylcellulose) (HPC) 91 % of control | dose: 50.0 mg/kg/injection, schedule: Q04DX003 (ip), vehicle: Klucel (hydroxypropylcellulose) (HPC) 91 % of control | [18] 102 % of control | [8] 100 % of control

C[Si](C)(C)n1ccnc1
inactive: [13] 100 % of control | [14] 105 % of control | [15] 94 % of control

NC(=O)NN=C1CCC(CC2CCCCC2)CC1 (centres undefined)
inactive: dose: 25.0 mg/kg/injection, schedule: Q04DX003 (ip), vehicle: saline with Tween-80 102 % of control | dose: 50.0 mg/kg/injection, schedule: Q04DX003 (ip), vehicle: saline with Tween-80 102 % of control

COC(=O)c1cccc(C(=O)CC(=O)c2ccccc2)c1
inactive: [18] 90 % of control | [9] 95 % of control | [11] 88 % of control

Cc1cc(C)nc(NCCCC(N)C(=O)O)n1 (centres undefined)
inactive: [19] 100 % of control | [20] 95 % of control | [21] 92 % of control

Cc1cc(=O)[nH]c2c1ccc1[nH]c(=O)cc(C)c12
inactive: dose: 100.0 mg/kg/injection, schedule: Q01DX001 (ip), vehicle: Klucel (hydroxypropylcellulose) (HPC) 91 % of control | [8] 95 % of control | dose: 200.0 mg/kg/injection, schedule: Q01DX001 (ip), vehicle: Klucel (hydroxypropylcellulose) (HPC) 94 % of control | dose: 400.0 mg/kg/injection, schedule: Q01DX001 (ip), vehicle: Klucel (hydroxypropylcellulose) (HPC) 91 % of control | [12] 86 % of control

CCCC(=O)Nc1ccc(O)cc1
inactive: [1] 100 % of control | [22] 96 % of control | [2] 110 % of control | [23] 101 % of control | dose: 266.0 mg/kg/injection, schedule: Q01DX009 (ip), vehicle: saline with Tween-80 109 % of control | dose: 400.0 mg/kg/injection, schedule: Q04DX003 (ip), vehicle: saline with Tween-80 106 % of control

Fc1cc(F)c2ncccc2c1
inactive: dose: 12.5 mg/kg/injection, schedule: Q01DX001 (ip), vehicle: carboxymethylcellulose (CMC) 103 % of control | dose: 25.0 mg/kg/injection, schedule: Q01DX001 (ip), vehicle: carboxymethylcellulose (CMC) 98 % of control | dose: 50.0 mg/kg/injection, schedule: Q01DX001 (ip), vehicle: carboxymethylcellulose (CMC) 101 % of control | [7] 117 % of control | dose: 150.0 mg/kg/injection, schedule: Q01DX001 (ip), vehicle: carboxymethylcellulose (CMC) 118 % of control

Cc1cccc(NC(=S)NCc2ccco2)c1
inactive: [18] 96 % of control | [9] 93 % of control | [11] 91 % of control

O=C(O)c1cscn1
inactive: [4] 93 % of control | [1] 101 % of control and 90 % of control | [19] 97 % of control and 107 % of control | [22] 108 % of control | [5] 103 % of control | [2] 95 % of control and 97 % of control | [20] 97 % of control and 106 % of control | [23] 98 % of control | [6] 93 % of control | [3] 92 % of control | [21] 102 % of control and 92 % of control

C/C=C(\c1ccccc1)[N+](=O)[O-]
inactive: dose: 12.5 mg/kg/injection, schedule: Q01DX001 (ip), vehicle: acetone 100 % of control | dose: 12.5 mg/kg/injection, schedule: Q04DX003 (ip), vehicle: acetone 98 % of control | dose: 18.75 mg/kg/injection, schedule: Q01DX009 (ip), vehicle: acetone 98 % of control | dose: 25.0 mg/kg/injection, schedule: Q01DX001 (ip), vehicle: acetone 92 % of control | dose: 25.0 mg/kg/injection, schedule: Q04DX003 (ip), vehicle: acetone 98 % of control | dose: 37.5 mg/kg/injection, schedule: Q01DX009 (ip), vehicle: acetone 106 % of control | dose: 50.0 mg/kg/injection, schedule: Q01DX001 (ip), vehicle: acetone 97 % of control | dose: 50.0 mg/kg/injection, schedule: Q04DX003 (ip), vehicle: acetone 100 % of control | dose: 75.0 mg/kg/injection, schedule: Q01DX009 (ip), vehicle: acetone 88 % of control | dose: 75.0 mg/kg/injection, schedule: Q04DX003 (ip), vehicle: saline 94 % of control

O=C(O)CC(c1ccccc1)c1ccccc1
inactive: [18] 98 % of control | [8] 94 % of control | [9] 97 % of control | [10] 107 % of control | [11] 109 % of control | [12] 107 % of control

COC(=O)c1cc(Cl)ccc1OCC(=O)Nc1cccc([N+](=O)[O-])c1
inactive: [18] 96 % of control | dose: 100.0 mg/kg/injection, schedule: Q04DX002 (ip), vehicle: Klucel (hydroxypropylcellulose) (HPC) 94 % of control | [16] 94 % of control | [9] 89 % of control | dose: 200.0 mg/kg/injection, schedule: Q04DX002 (ip), vehicle: Klucel (hydroxypropylcellulose) (HPC) 92 % of control | [17] 97 % of control | [11] 104 % of control | dose: 400.0 mg/kg/injection, schedule: Q04DX002 (ip), vehicle: Klucel (hydroxypropylcellulose) (HPC) 92 % of control | dose: 400.0 mg/kg/injection, schedule: Q04DX002 (ip), vehicle: saline 97 % of control
